Laboratory results reported in US20190328783A1, “A METHOD OF ENGINEERING PRODRUG-SPECIFIC HYPERSENSITIVE T-CELLS FOR IMMUNOTHERAPY BY GENE EXPRESSION” (CELLECTIS, priority 2016, published 2019).
“Also recorded” adds a separate entry of the source.

Key:
[1] = system: dCK KO T cells expressing CDA-BFP; assay: Viability by flow cytometry of dCK KO T cells transfected with CDA-BFP mRNA, in presence of prodrug; type: cell-based, human; conditions: increasing concentration (0 to 10 mM) for 48H; FIG. 2
Experimental: FIG. 2: Analysis by FACS for BFP expression in T cells render hypersensitive to the prodrugs 5fdC and 5HmdC by combining CDA expression and inactivation of dCK gene by KO. mRNA encoding a chimeric construction consisting of CDA fused to a BFP reporter, and a KO inactivation of dCK is made by using TALE-nuclease as explained later. […]
To further investigate the ability of T cells to be sensitive to 5fdC, IC50 for this prodrug was determined on dCK KO and WT T cells. […] At the end of 5fdC incubation, viability of T cells was determined by FACS analysis.
FIG. 2 presents the results to show whether primary T cells having undergone dCK KO can still endow resistance to purine nucleotide analogues as well as with hypersensitivity toward 5hmDC and SFDC. One day post transfection, dCK KO T cells were recovered and analyzed by flow cytometry for BFP expression. […] As described earlier, transfected cells were incubated in the presence of increasing concentration of 5hmdC or 5FdC for 48H and at the end of incubation, cell viability was determined by flow cytometry.

[2] = system: primary T cells transfected with CDA-BFP mRNA; assay: Viability by flow cytometry of primary T cells transfected with CDA-BFP mRNA, in presence of prodrug; type: cell-based, human; conditions: increasing concentration (0 to 10 mM) for 48H; FIG. 1
From the text: FIG. 1: Analysis by FACS for BFP expression in T cells render hypersensitive to the prodrugs 5fdC and 5HmdC after CDA expression. mRNA encoding a chimeric construction consisting of CDA fused to a BFP reporter. A) Viability rate expressed in percentage: comparison between mock (T cells not transfected by the CDA expression plasmid)—represented in the graph by unfilled bar- and transfected T cells by the CDA expression plasmid—represented in the graph by filled bar-, when all cells are submitted to an increasing dose of the 5fdC prodrug (from 0 to 10 mM); B) The same than for A) excepted that the cells are submitted to an increasing dose of the 5HmdC prodrug (from 0 to 10 mM). […]
To test the ability of CDA expression to endow primary T cell with hypersensitivity to hypomethylated agents 5hmdC and 5FdC, primary T cells were transfected with 40 μg of mRNA encoding a chimeric construction consisting of CDA fused to a BFP reported via a 2A self-cleaving peptide (SEQ ID NO. 9). One day post transfection, cells were recovered and analyzed by flow cytometry for BFP expression.
Transfected cells were incubated in the presence of increasing concentration of 5hmdC or 5FdC for 48H. At the end of incubation, cell viability was determined by flow cytometry. […]

Nc1nc(=O)n([C@H]2C[C@H](O)[C@@H](CO)O2)cc1C=O [5FdC, 5-formyl-2′-deoxycytidine]
prodrug hypersensitivity (cell viability) of dCK KO T cells transfected with CDA-BFP [1]: increase of specific prodrug hypersensitivity; also recorded: hypersensitive | sensitivity (cell viability) of CDA-transfected T cells with respect to wild type cells [2]: increase of sensitivity

Nc1nc(=O)n([C@H]2C[C@H](O)[C@@H](CO)O2)cc1CO [5hmdC, 5-hydroxymethyl-2′-deoxycytidine]
prodrug hypersensitivity (cell viability) of dCK KO T cells transfected with CDA-BFP [1]: increase of specific prodrug hypersensitivity; also recorded: hypersensitive | sensitivity (cell viability) of CDA-transfected T cells with respect to wild type cells [2]: increase of sensitivity
